# Assay results taken from publication PMC11124387, “A Reliable Multifaceted Solution against Foodborne Viral Infections: The Case of RiLK1 Decapeptide” (Molecules, 2024).
# Format: physicochemical
# Method: Circular Dichroism (CD) analysis was performed by a Jasco J-810 spectropolarimeter. The samples were loaded into a quartz cuvette of 0.1 cm path length (Hellma Analytics), and the spectra were recorded in the 195–250 nm range at a scan speed of 20 nm/min, averaging 5 scans. CD experiments were carried out in 10 mM Tris-HCl buffer, pH 7.0, as a function of SDS concentrations (3, 50, and 150 mM) at a peptide concentration of 50 µM. The folding kinetic measurements of the peptides were performed after the addition of SDS (50 mM) to each sample (50 µM in 10 mM Tris-HCl, pH 7.0) up to 24 h of incubation. For thermal stability analyses, the peptides were prepared to a final concentration of 50 μM in 10 mM Tris-HCl, pH 7.0, and then they were incubated at 4 and 25 °C up to 48 h before acquiring the CD spectra in the presence of 50 mM SDS. A blank spectrum of a sample containing all components except the peptide was acquired for the baseline correction of the CD spectra of the peptide. The mean residue ellipticity ([θ], deg cm^2 dmol^−1) was obtained by the equation [θ] = 100 θ/cnl, where θ is the ellipticity (mdeg), c is the peptide concentration (mM), n is the number of residues, and l is the path length (cm).
# Tryptophan (Trp) fluorescence emission spectra were recorded at 25 °C on a Shimadzu RF-6000 spectrofluorometer (Kyoto, Japan), with both excitation and emission slit widths set at 5 nm. The intrinsic Trp was excited at a wavelength of 280 nm and the emission was monitored between 300 and 400 nm. Fluorescence measurements were carried out in 10 mM Tris-HCl buffer, pH 7.0, as a function of SDS concentrations (3, 50, and 150 mM) at a peptide concentration of 50 µM. The folding kinetic experiments of AVP2 and RiLK30 were performed after the addition of SDS (50 mM) to each sample (50 µM concentration in 10 mM Tris-HCl buffer, pH 7.0) up to 24 h of incubation. The effect of temperature on peptide folding was analyzed by dissolving the peptides at a final concentration of 50 µM in 10 mM Tris-HCl buffer, pH 7.0, and incubating them at 4 and 25 °C up to 48 h. The spectra were recorded in the presence of 50 mM SDS.
substance,measurement,setting,value
"KLRWVKIWKK-NH2 [RiLK30, newly designed RiLK1 derivative, Arg residues exchanged with Lys and Lys3 with Arg]",thermal (conformational) stability in SDS micellar solution,pH 7,at least 48 h
same,conformational rearrangement over time (CD and fluorescence spectra),"peptide 50 µM, 10 mM Tris-HCl pH 7.0, SDS 50 mM, 24 h incubation at 37 °C (legend: 25 °C)",did not appear to undergo significant changes
same,self-aggregation (CD in SDS),"peptide 50 µM, 10 mM Tris-HCl pH 7.0, SDS 3, 50, 150 mM, 25 °C",high propensity to self-aggregate
